The text below walks through data of US10517889B2, “Modulators of SMAD7 expression” (Ionis Pharmaceuticals, Inc., priority 2017, dated 2019).

The series has as its system human SMAD7 mRNA. Nature of the series: Antisense inhibition of human SMAD7 mRNA expression in Hep3B cells by 5-10-5 MOE gapmers, single concentration, electroporation, RT-PCR (Example 1, Study 1 and 2). The series is classed as cell-based. The settings on record: for % Inhibition: Study 2, electroporation with 15,000 nM antisense oligonucleotide; for % Inhibition of SMAD7 mRNA: electroporation with 15,000 nM antisense oligonucleotide (Study 2). In short, it runs like this:
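Hep3B cells (20,000/well) electroporated with 5-10-5 MOE gapmer at 5,000 nM or 15,000 nM for approximately 24 h. SMAD7 mRNA quantified by real-time PCR with primer probe set RTS5062 and normalized to RIBOGREEN total RNA. Values are percent inhibition relative to untreated controls.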

Setting [1] is: electroporation, 15,000 nM antisense oligonucleotide (Study 2), 5-10-5 MOE gapmers targeting SEQ ID NO: 1 and 2.
[2] abbreviates: 5-10-5 MOE gapmers targeting SEQ ID NO: 1 and 2.
The mark [3] stands for this setting: electroporation, 5,000 nM, approximately 24 hours, relative to untreated control cells, gapmers targeting SEQ ID NO: 1 and 2.
Setting [4] is: electroporation, 15,000 nM, approximately 24 hours, relative to untreated control cells, gapmers targeting SEQ ID NO: 1 and 2.

Strand notation (5' to 3'): a small letter for the sugar, then the base; units joined by * are phosphorothioate-linked, units joined directly phosphodiester-linked; [ ] holds rarer units or linkages, { } end groups; capitals alone tell only the bases. e = 2'-O-(2-methoxyethyl) (MOE); [5mC] = 5-methylcytosine; d = 2'-deoxy (DNA)

As to “771802 (antisense e[5mC]*e[5mC]*eT*eT*eG*dA*dG*dA*dT*d[5mC]*d[5mC]*dA*dT*dG*dG*eG*eA*eG*e[5mC]*eA) [compound 771802]”, under setting [1], the “% inhibition of SMAD7 mRNA expression” value turned out to be 40%.

As for “771803 (antisense eA*eT*eG*eG*eA*dT*dA*d[5mC]*dT*dG*dA*d[5mC]*dT*d[5mC]*dA*eA*eG*eG*eA*e[5mC]) [compound 771803]”, the % Inhibition (as a rule, the percentage by which the read-out fell short of the control) under setting [2] is on record as 39%. Under setting [3], the “% inhibition of SMAD7 mRNA expression” value is 22%.

Regarding “771804 (antisense eG*eA*e[5mC]*eA*eG*dA*dT*dG*d[5mC]*d[5mC]*dA*dG*d[5mC]*dA*dA*eG*eG*eA*eT*e[5mC]) [compound 771804]”, the “% Inhibition” value under setting [2] was 17%.

As to “771805 (antisense eG*eA*eT*eT*eA*dT*dA*dT*dA*dG*dG*dT*dA*dT*dT*eT*eT*eT*eG*eA) [compound 771805]”, under setting [4], the “% inhibition of SMAD7 mRNA expression” value came out at 0%.

For “771806 (antisense eA*e[5mC]*eA*eA*eT*dG*dA*dA*dT*dA*dA*dT*dT*dG*dT*eT*e[5mC]*eA*e[5mC]*eG) [compound 771806]”, under setting [2], the “% Inhibition” value is listed as 0%.

As for “771807 (antisense eG*e[5mC]*e[5mC]*e[5mC]*eT*d[5mC]*dA*d[5mC]*dT*d[5mC]*d[5mC]*dA*d[5mC]*dA*dA*eT*eG*eG*e[5mC]*eA) [compound 771807]”, the “% Inhibition” value under setting [2] stood at 51%.

As for “771809 (antisense eA*e[5mC]*e[5mC]*eT*eG*dA*dG*dT*d[5mC]*d[5mC]*d[5mC]*d[5mC]*d[5mC]*dA*dA*eA*eG*eT*e[5mC]*e[5mC]) [compound 771809]”, the “% inhibition of SMAD7 mRNA expression” value under setting [1] came out at 7%.

For the substance “771810 (antisense eG*eG*e[5mC]*eA*e[5mC]*dT*dG*d[5mC]*dA*dG*dA*dA*dG*dA*dG*eG*e[5mC]*eG*eG*eG) [compound 771810]”, the “% inhibition of SMAD7 mRNA expression” value under setting [1] is reported as 46%.

“771811 (antisense eT*eG*e[5mC]*e[5mC]*eT*d[5mC]*dA*dT*dT*d[5mC]*dT*dT*dT*d[5mC]*d[5mC]*eA*eG*eG*eA*e[5mC]) [compound 771811]”: under setting [2], the “% Inhibition” value stood at 50%. Also, under setting [3], the “% inhibition of SMAD7 mRNA expression” value was determined as 48%.

For the substance “771812 (antisense eT*eT*eA*eA*e[5mC]*d[5mC]*d[5mC]*d[5mC]*dT*dG*d[5mC]*d[5mC]*dG*dG*dA*e[5mC]*eT*eG*e[5mC]*e[5mC]) [compound 771812]”, the “% Inhibition” value under setting [2] was 26%.

“771813 (antisense eT*e[5mC]*eT*eT*eG*dT*d[5mC]*dT*dG*dG*d[5mC]*d[5mC]*dG*dG*d[5mC]*eA*eG*eA*eG*e[5mC]) [compound 771813]”: the “% inhibition of SMAD7 mRNA expression” value under setting [4] was determined as 38%.

As to “771814 (antisense eT*e[5mC]*e[5mC]*e[5mC]*eT*dT*dT*dG*d[5mC]*dT*dG*dG*d[5mC]*d[5mC]*d[5mC]*eA*eG*eT*eT*e[5mC]) [compound 771814]”, the “% Inhibition” value under setting [2] is listed as 39%.

Regarding “771816 (antisense eA*eT*e[5mC]*e[5mC]*eA*dA*d[5mC]*dT*dA*d[5mC]*dT*d[5mC]*dA*dG*dA*eG*eG*e[5mC]*eT*eG) [compound 771816]”, the “% Inhibition of SMAD7 mRNA” value under setting [2] amounted to 28%. For the same substance, under setting [1], the “% inhibition of SMAD7 mRNA expression” value is listed as 27%.

“771817 (antisense eG*eG*eA*eA*eT*dT*dA*dT*dG*dA*d[5mC]*dA*d[5mC]*dA*dG*eT*eA*eA*e[5mC]*eA) [compound 771817]”: the “% inhibition of SMAD7 mRNA expression” value under setting [1] amounted to 19%.

As for “771818 (antisense eT*eG*eA*eA*eG*dA*d[5mC]*dA*dA*d[5mC]*dT*dG*d[5mC]*dT*dT*eT*eG*eA*eG*eA) [compound 771818]”, the “% inhibition of SMAD7 mRNA expression” value under setting [1] was 38%.

“771819 (antisense eA*eA*eT*eA*eG*dT*dT*dT*dT*d[5mC]*dT*d[5mC]*dT*d[5mC]*dA*eA*eA*eT*eG*eT) [compound 771819]”: the “% Inhibition” value under setting [2] is given as 20%. Besides, the “% inhibition of SMAD7 mRNA expression” value under setting [3] is on record as 56%.

Take “771823 (antisense e[5mC]*eT*eT*e[5mC]*e[5mC]*d[5mC]*dA*dT*dG*dT*dG*dA*d[5mC]*d[5mC]*dT*e[5mC]*eA*eG*eG*eG) [compound 771823]”: the “% Inhibition” value under setting [2] was determined as 49%.

As to “771824 (antisense eT*eT*e[5mC]*eT*eA*d[5mC]*dT*dA*dG*dA*dA*dA*dA*dA*dA*eA*eT*eT*eA*eG) [compound 771824]”, under setting [2], the “% Inhibition of SMAD7 mRNA” value is 3%. The “% inhibition of SMAD7 mRNA expression” value under setting [1] is listed as 0%.

With “771826 (antisense e[5mC]*eA*e[5mC]*e[5mC]*eA*dT*d[5mC]*d[5mC]*dT*dG*dG*dT*dT*d[5mC]*dG*e[5mC]*eA*eG*eT*e[5mC]) [compound 771826]”, under setting [1], the “% inhibition of SMAD7 mRNA expression” value was 31%.

For “771827 (antisense eA*eA*eG*eG*eA*d[5mC]*dA*dT*d[5mC]*dA*d[5mC]*dA*dG*dG*dG*eA*e[5mC]*eT*eG*eG) [compound 771827]”, the “% Inhibition” value under setting [2] stood at 33%. Further, the “% inhibition of SMAD7 mRNA expression” value under setting [3] was determined as 31%.

With “771828 (antisense eG*e[5mC]*e[5mC]*e[5mC]*eT*dA*dG*dA*dA*d[5mC]*dT*dT*dG*dG*dG*e[5mC]*eA*eA*eG*eG) [compound 771828]”, the “% Inhibition” value under setting [2] is recorded as 8%.

For “771829 (antisense eT*eG*eT*eG*e[5mC]*d[5mC]*dT*d[5mC]*dA*dG*d[5mC]*dA*dG*dT*dT*eA*eA*eT*eA*eA) [compound 771829]”, the “% inhibition of SMAD7 mRNA expression” value under setting [4] is 14%.

As for “771830 (antisense eT*eT*eT*eA*eG*dG*dT*dA*dG*dA*dG*dT*dG*dG*d[5mC]*e[5mC]*eG*eG*eG*eA) [compound 771830]”, the “% Inhibition” value under setting [2] came to 40%.

On to “771832 (antisense eA*e[5mC]*e[5mC]*eT*eT*dT*d[5mC]*dA*d[5mC]*dG*dA*dA*d[5mC]*d[5mC]*dA*e[5mC]*eT*eT*eT*eT) [compound 771832]”, for which the “% Inhibition of SMAD7 mRNA” value under setting [2] is on record as 31%. The “% inhibition of SMAD7 mRNA expression” value under setting [1] was 11%.

For “771833 (antisense eT*eT*eA*eA*eA*dG*dA*dA*dA*dA*dT*dG*dG*d[5mC]*d[5mC]*eT*eA*e[5mC]*eA*eT) [compound 771833]”, the “% inhibition of SMAD7 mRNA expression” value under setting [1] is given as 21%.

For the substance “771834 (antisense eA*eA*e[5mC]*eA*eT*dA*dA*dA*dG*dT*dT*d[5mC]*dT*d[5mC]*dA*eA*eA*e[5mC]*eA*eG) [compound 771834]”, under setting [1], the “% inhibition of SMAD7 mRNA expression” value was 25%.

“771835 (antisense eA*eG*eT*eA*eA*dA*dA*dT*dG*dG*dG*dA*dA*dA*dT*eA*eA*eG*eG*e[5mC]) [compound 771835]”: the “% Inhibition” value under setting [2] came to 5%. Besides, the “% inhibition of SMAD7 mRNA expression” value under setting [3] was 17%.

Consider “771837 (antisense eA*eG*eT*eG*eT*dT*dG*dA*dG*dG*dA*d[5mC]*dT*d[5mC]*d[5mC]*e[5mC]*e[5mC]*eA*eG*e[5mC]) [compound 771837]”, for which, under setting [4], the “% inhibition of SMAD7 mRNA expression” value is 48%.

For the substance “771839 (antisense e[5mC]*eA*e[5mC]*eA*eG*d[5mC]*dA*d[5mC]*d[5mC]*dG*dT*dT*dA*d[5mC]*dT*eG*eG*eA*e[5mC]*eA) [compound 771839]”, under setting [2], the “% Inhibition” value was found to be 21%.

Consider “771840 (antisense eA*eG*eA*eT*eG*d[5mC]*dT*dT*d[5mC]*dT*dA*dG*dG*dT*dG*eA*eA*e[5mC]*e[5mC]*eA) [compound 771840]”, for which, under setting [2], the “% Inhibition of SMAD7 mRNA” value was determined as 30%. Under setting [1], the “% inhibition of SMAD7 mRNA expression” value was determined as 16%.

With “771841 (antisense eT*eT*eT*eA*eG*dA*dA*dA*d[5mC]*d[5mC]*d[5mC]*dA*dG*dA*dG*eA*e[5mC]*eA*eA*eA) [compound 771841]”, the “% inhibition of SMAD7 mRNA expression” value under setting [1] worked out at 36%.

As for “771842 (antisense eT*eT*eG*eT*eG*dT*dT*dA*dT*dG*dA*dA*dA*dA*d[5mC]*eA*eA*eA*eA*e[5mC]) [compound 771842]”, the “% inhibition of SMAD7 mRNA expression” value under setting [1] is listed as 6%.

As to “771843 (antisense e[5mC]*eG*e[5mC]*e[5mC]*eG*dG*d[5mC]*d[5mC]*d[5mC]*dA*d[5mC]*d[5mC]*dA*dA*d[5mC]*e[5mC]*eT*e[5mC]*eT*eG) [compound 771843]”, under setting [2], the “% Inhibition” value came to 17%. In addition, the “% inhibition of SMAD7 mRNA expression” value under setting [3] is 19%.

For “771844 (antisense eG*eA*eA*eG*eG*dA*d[5mC]*d[5mC]*dA*dA*dG*dT*d[5mC]*d[5mC]*d[5mC]*eT*e[5mC]*eT*e[5mC]*e[5mC]) [compound 771844]”, under setting [2], the “% Inhibition” value was 0%.

Consider “771845 (antisense eT*eT*e[5mC]*e[5mC]*eA*dA*dG*d[5mC]*dA*d[5mC]*dG*dG*dA*dG*dT*e[5mC]*eA*eG*e[5mC]*e[5mC]) [compound 771845]”, for which the “% inhibition of SMAD7 mRNA expression” value under setting [4] is 39%.

In the case of “771846 (antisense e[5mC]*eA*eT*eA*eT*dT*dT*dG*d[5mC]*dT*d[5mC]*d[5mC]*dA*dT*dA*eA*eA*e[5mC]*eA*eA) [compound 771846]”, the “% Inhibition” value under setting [2] is 5%.

In the case of “771847 (antisense e[5mC]*eA*eT*e[5mC]*eA*d[5mC]*d[5mC]*dT*dT*d[5mC]*dG*dG*dA*d[5mC]*dA*eA*eG*e[5mC]*e[5mC]*eA) [compound 771847]”, under setting [2], the “% Inhibition” value came to 53%.

Turning to “771848 (antisense e[5mC]*e[5mC]*eA*e[5mC]*eA*d[5mC]*dA*dA*d[5mC]*d[5mC]*dA*dA*dA*dG*d[5mC]*eA*eG*eA*eA*eG) [compound 771848]”, the “% Inhibition of SMAD7 mRNA” value under setting [2] was found to be 47%. Further, the “% inhibition of SMAD7 mRNA expression” value under setting [1] is 36%.

Turning to “771851 (antisense eG*e[5mC]*eT*eT*eT*dG*dA*dA*dA*dA*d[5mC]*dA*dT*d[5mC]*d[5mC]*e[5mC]*eA*e[5mC]*eT*eT) [compound 771851]”, the “% Inhibition” value under setting [2] amounted to 43%. Besides, under setting [3], the “% inhibition of SMAD7 mRNA expression” value is given as 25%.

With “771852 (antisense eA*eG*eA*eT*eT*dT*dA*dA*dA*dA*dT*dT*dA*dA*dA*eA*eA*eG*e[5mC]*eA) [compound 771852]”, under setting [2], the “% Inhibition” value is reported as 0%.
